We go through 27 molecules from patent US5104858A, “Sensitizing multidrug resistant cells to antitumor agents” (priority 1988, dated 1992).

By IC50 is commonly meant the concentration that gives 50% inhibition.

In data set [1] the test system is MCF-7/DOX cells. The data set can be described thus: Inhibition of MCF-7/DOX cell growth, microtiter methylene blue staining assay, 48 h. Type of data set: cell-based, human.
Data set [2] concerns MCF-7/DOX cells. Description: Antagonism of multidrug resistance (sensitization to doxorubicin) in MCF-7/DOX cells, MDR Ratio. The note with it: for MDR Ratio (IC50 doxorubicin alone / IC50 doxorubicin in presence of modifier): 48 h. The class given is cell-based, human.
The target in data set [3] is T1, Calmodulin (Bos taurus, UniProt P62157). Description: biochemical.
For data set [4] the following is noted: Norman and Drummond; cited from earlier work.
In data set [5] the test system is MCF-7/DOX cells. Description: Cellular accumulation of doxorubicin in MDR MCF-7/DOX cells. Type of data set: cell-based, human. The note with it: 3 hours, 15 μM doxorubicin.
Source text: Cellular content of doxorubicin was computed from standard curves prepared with known amounts of doxorubicin.
The subject of data set [6] is L1210/DOX cells. The note with it: Ganapathi and Grabowski; cited from earlier work.
The subject of data set [7] is KC/ADR10 human breast cells. The note with it: Ahn et al; cited from earlier work.
Data set [8] deals with clinically resistant cancer. The note with it: with doxorubicin or bleomycin, Phase I, cited from earlier work.
For data set [9], the system named is P-glycoprotein. The note with it: MDR Chinese hamster lung cells, Center; cited from earlier work.
In data set [10] the test system is MCF-7/DOX cells. The note with it: Fine et al; cited from earlier work.
The test system of data set [11] is MCF-7/DOX cells. The data set can be described thus: Cellular accumulation of cis and trans-flupenthixol in MCF-7/DOX cells. The class given is cell-based, human. The note with it: for cell associated drug concentration at 3 μM / cell associated drug concentration at 10 μM / cell associated drug concentration at 100 μM: 3 hour incubation; for cellular accumulation of thioxanthene isomers, in words: MDR cells. The procedure:
Cells were washed three times in cold PBS by centrifugation at 100× g for 10 minutes, resuspended in 2 ml of 0.3N HCl in 50% ethanol, and sonicated for 10 pulses at 200 ws with a Tekmar cell sonicator (Tekmar, Cincinnati, Ohio). Following centrifugation at 1000× g for 30 minutes, the supernatant was removed and assayed for drug content with a Perkin-Elmer 512 spectrofluorometer (Norwalk, Conn.). Optimal excitation and emission wavelengths for both thioxanthene isomers were determined to be 320 nm and 400 nm, respectively.

The target in data set [12] is T1, Calmodulin. The note with it: Norman and Drummond; cited from earlier work.
Data set [13] deals with acute schizophrenia. The note with it: humans; cited from earlier work.
[14] abbreviates: Homo sapiens, MCF7-DOX, 48 h, MCF-7/DOX cells, 48 h, drug alone; read-out: IC50 for cell growth inhibition.
Setting [15] is: MCF-7/DOX cells, 48 h, drug alone; read-out: IC50 for cell growth inhibition.
Setting [16] is: Homo sapiens, MCF7-DOX, 48 h, read-out: IC50 for cell growth inhibition.
Setting [17] is: Homo sapiens, MCF7-DOX, 48 h; read-out: IC50 for cell growth inhibition.
Where [18] appears, read: read-out: IC50 for cell growth inhibition.
[19] abbreviates: Homo sapiens, MCF7-DOX, 48 h, MCF-7/DOX cells, 48 h, structurally related compounds; read-out: Cell Growth Inhibition IC50 (Table 5).
The mark [20] stands for this setting: Homo sapiens, MCF7-DOX, 48 h, read-out: concentration which alone produces 10% inhibition of cell growth.
Where [21] appears, read: Homo sapiens, MCF7-DOX, 48 h; read-out: Cell Growth Inhibition IC50 (Table 5).

“Also recorded” adds a separate entry of the source. Where two headings read alike, the source gives them in different places.

Consider `CN(C)CCCN1c2ccccc2Sc2cccc(Cl)c21` [1-Chlorpromazine], for which the IC50 in data set [1] (setting [14]) amounted to 21 µM; in [3], 74 µM. Further, the “MDR Ratio (IC50 doxorubicin alone / IC50 doxorubicin in presence of modifier)” value in [2] worked out at 1.3.
Regarding `CN(C)CCN1c2ccccc2Sc2ccc(Cl)cc21` [2-Chloro-10-[2-(dimethylamino)ethyl] phenothiazine], the results for the IC50 in data set [1] (setting [14]) and in data set [3] were 27 µM and 60 µM, respectively. Besides, the “MDR Ratio (IC50 doxorubicin alone / IC50 doxorubicin in presence of modifier)” value in data set [2] was found to be 1.5.
Take `CN(C)CCCCN1c2ccccc2Sc2ccc(Cl)cc21` [2-Chloro-10-[4-(dimethylamino)butyl] phenothiazine]: the values for the IC50 in data set [1] (setting [14]) and in data set [3] were 7 µM and 40 µM, respectively. Further, the “MDR Ratio (IC50 doxorubicin alone / IC50 doxorubicin in presence of modifier)” value in data set [2] amounted to 2.0.
In the case of `CN(C)CCCN1c2cc(O)ccc2Sc2cc(O)c(Cl)cc21` [3,8-Dihydroxychlorpromazine], the half-inhibitory concentration (IC50) came out at 400 µM in data set [1] (setting [14]) and 183 µM in data set [3]. Moreover, the “MDR Ratio (IC50 doxorubicin alone / IC50 doxorubicin in presence of modifier)” value in data set [2] is reported as 0.9.
The matching figures for `CN(C)CCCN1c2ccccc2Sc2cc(Cl)ccc21` [3-Chlorpromazine]: 10 µM, 24 µM and 1.3.
Regarding `CN(C)CCCN1c2ccccc2Sc2c(Cl)cccc21` [4-Chlorpromazine], the IC50 was 15 µM in [1] (setting [14]) and 25 µM in data set [3]. For the same molecule, the “MDR Ratio (IC50 doxorubicin alone / IC50 doxorubicin in presence of modifier)” value in data set [2] was 1.4.
For the molecule `CN(C)CCCN1c2cc(Cl)ccc2Sc2cc(O)c(O)cc21` [7,8-Dihydroxychlorpromazine], the IC50 amounted to 63 µM in data set [1] (setting [14]) and 82 µM in [3]. For the same molecule, the “MDR Ratio (IC50 doxorubicin alone / IC50 doxorubicin in presence of modifier)” value in data set [2] was found to be 0.8.
Turning to `CN(C)CCCN1c2ccc(O)cc2Sc2ccc(Cl)cc21` [7-Hydroxychlorpromazine], the IC50 in [1] (setting [14]) was 50 µM; in data set [3], 68 µM. For the same molecule, the “relative potency in inhibiting cell growth (fold less potent)” value in data set [1] (versus chlorpromazine) is 6 fold. The “MDR Ratio (IC50 doxorubicin alone / IC50 doxorubicin in presence of modifier)” value in [2] came out at 1.0.
Take `CCN(CC)CCCN1c2ccccc2Sc2ccc(Cl)cc21` [Chlorproethazine]: the IC50 in [1] (setting [14]) is 8 to 12 µM; in data set [1] (setting [15]) it was 12 µM; in data set [3], 28 µM. Further, the “MDR Ratio (IC50 doxorubicin alone / IC50 doxorubicin in presence of modifier)” value in [2] was 2.2.
Take `CN(C)CCCN1c2ccccc2[S+]([O-])c2ccc(Cl)cc21` (stereo not shown) [Chlorpromazine Sulfoxide]: the “inhibition of cell growth, comparison in words” value in data set [1] is given as “lost most of its antiproliferative effect”. Also, the IC50 was found to be 500 µM in [1] (setting [16]) and 2200 µM in [3]. The “anti-MDR activity, comparison in words” value in [2] is reported as “retained its effect against MDR”.
`CN(C)CCCN1c2ccccc2Sc2ccc(Cl)cc21` [Chlorpromazine]: the figures for the IC50 in data set [1] (setting [17]) and in data set [1] (setting [18]) were 8 µM and 8 to 12 µM, respectively. Moreover, in data set [2], the “sensitization of MCF-7/DOX cells to doxorubicin” value turned out to be 60%. Moreover, the “octanol:buffer partition coefficient (log P)” value in [4] is 4.04.
With `CNCCCN1c2ccccc2Sc2ccc(Cl)cc21` [Desmethylchlorpromazine], the IC50 in data set [1] (setting [14]) is 8 to 12 µM; in data set [1] (MCF-7/DOX cells, 48 h, drug alone; listed as desmethylchlorpromazine; read-out: IC50 for cell growth inhibition), 8 µM; in data set [1] (setting [15]), 8 µM; in data set [3], 45 µM. Moreover, the “MDR Ratio (IC50 doxorubicin alone / IC50 doxorubicin in presence of modifier)” value in [2] is 1.2.
As for `NCCCN1c2ccccc2Sc2ccc(Cl)cc21` [Didesmethylchlorpromazine], the IC50 in data set [1] (setting [14]) is 8 to 12 µM; in data set [1] (setting [15]), 11 µM; in [3], 38 µM. The “MDR Ratio (IC50 doxorubicin alone / IC50 doxorubicin in presence of modifier)” value in [2] stood at 1.1.
Turning to `COc1cccc2c1C(=O)c1c(O)c3c(c(O)c1C2=O)C[C@@](O)(C(=O)CO)C[C@@H]3O[C@H]1C[C@H](N)[C@H](O)[C@H](C)O1` [Doxorubicin], the IC50 in data set [1] (setting [16]) was 12 µM. In addition, the “resistance to doxorubicin of MCF-7/DOX cells relative to parental cell line” value in [1] (human, mcf-7/dox cells) was “approximately 200 fold”. Also, in data set [5], the “doxorubicin accumulation, fold less in MCF-7/DOX than in sensitive cell line” value was “approximately 10 fold”.
With `CC1CNCCN1S(=O)(=O)c1cccc2cnccc12` (stereo not shown) [H-7, 1-(5-isoquinolinylsulfonyl)-2-methylpiperazine], in data set [6], the “sensitization of L1210/DOX cells” value is given as “failed to sensitize L1210/DOX cells”. Also, the “sensitization of KC/ADR10 human breast cells” value in [7] is given as “does sensitize KC/ADR10 human breast cells”.
Regarding `CN(C)CCCN1c2ccccc2CCc2ccccc21` [Imipramine], the IC50 in data set [1] (setting [19]) amounted to 19 µM; in data set [3], 125 µM.
In the case of `OC1(c2ccc(Cl)c(C(F)(F)F)c2)CCN(CCCC(c2ccc(F)cc2)c2ccc(F)cc2)CC1` [Penfluridol], the IC50 in data set [1] (setting [19]) and in data set [3] was 3 µM each time. Also, the “MDR Ratio (IC50 doxorubicin alone / IC50 doxorubicin in presence of modifier)” value in data set [2] came out at 2.0.
Regarding `OCCN1CCN(CCCN2c3ccccc3Sc3ccc(Cl)cc32)CC1` [Perphenazine], the IC50 in data set [1] (setting [17]) turned out to be 32 µM.
`O=c1[nH]c2ccccc2n1C1CCN(CCCC(c2ccc(F)cc2)c2ccc(F)cc2)CC1` [Pimozide]: the “octanol:buffer partition coefficient (log P)” value in data set [4] was 4.88. This molecule showed an IC50 in [3] of 7 µM.
In the case of `CN(C)CCCN1c2ccccc2Sc2ccccc21` [Promazine], the IC50 amounted to 26 µM in data set [1] (setting [14]), 27 µM in data set [1] (setting [15]) and 110 µM in data set [3]. Further, in [2], the “MDR Ratio (IC50 doxorubicin alone / IC50 doxorubicin in presence of modifier)” value is on record as 1.2. In addition, in data set [2] (modifier at 10% growth inhibitory concentration), the “sensitization of MCF-7/DOX cells to doxorubicin” value is given as 20%.
With `CC(CN1c2ccccc2Sc2ccccc21)N(C)C` (stereo not shown) [Promethazine], the “inhibition of cell growth, comparison in words” value in data set [1] was “less potent inhibitor of cell growth than promazine”. The IC50 in data set [1] (setting [17]) was found to be 29 µM.
Take `CCN(CC)CCCC(C)Nc1c2ccc(Cl)cc2nc2ccc(OC)cc12` (stereo not shown) [Quinacrine]: the IC50 in [1] (setting [19]) worked out at 3 µM; in [3], 42 µM. The “MDR Ratio (IC50 doxorubicin alone / IC50 doxorubicin in presence of modifier)” value in [2] was 1.3.
`CSc1ccc2c(c1)N(CCCN(C)C)c1ccccc1S2` [Thiomethylpromazine]: the IC50 in data set [1] (setting [14]) came out at 20 µM; in data set [3], 42 µM. The “MDR Ratio (IC50 doxorubicin alone / IC50 doxorubicin in presence of modifier)” value in [2] was 1.5.
Consider `CN1CCN(CCCN2c3ccccc3Sc3ccc(C(F)(F)F)cc32)CC1` [Trifluoperazine], for which the IC50 in [1] (setting [17]) was found to be 19 µM. The “dose limiting side effects in combination trials” value was “Extrapyramidal side effects have proven to be dose limiting” in data set [8] and “extrapyramidal side effects” in data set [8] (listed as trifluperazine). Besides, the “phosphorylation of P-glycoprotein, doxorubicin accumulation and cytotoxicity” value in data set [9] was “increased phosphorylation of this protein in MDR Chinese hamster lung cells and enhanced doxorubicin accumulation and cytotoxicity”. Further, in data set [10], the “reversal of phorbol ester effects on anthracycline resistance” value is given as “reversed”.
As for `CN(C)CCCN1c2ccccc2Sc2ccc(C(F)(F)F)cc21` [Trifluopromazine], the IC50 in [1] (setting [17]) turned out to be 16 µM; in data set [1] (setting [18]), 14 µM.
For the molecule `OCCN1CCN(CC/C=C2/c3ccccc3Sc3ccc(C(F)(F)F)cc32)CC1` [cis-Flupenthixol], in data set [1] (setting [20]), the IC10 was 3 µM. The IC50 in [1] (setting [21]) was 24 µM. In data set [11], the cell associated drug concentration at 3 μM was found to be 830 ± 80 pmol/10^6 cells; the cell associated drug concentration at 10 μM worked out at 1420 ± 250 pmol/10^6 cells; the cell associated drug concentration at 100 μM was 7000 ± 330 pmol/10^6 cells; the “cellular accumulation of thioxanthene isomers, in words” value is “equivalent, dose-dependent fashion”. Moreover, the “anti-CaM effect of thioxanthene stereoisomers” value in [12] is “no difference between cis and trans-flupenthixol”. In addition, the “octanol:buffer partition coefficient (log P)” value in data set [4] is 4.25.
With `OCCN1CCN(CC/C=C2\c3ccccc3Sc3ccc(C(F)(F)F)cc32)CC1` [trans-Flupenthixol], the IC50 in data set [1] (setting [16]) stood at 25 µM. Also, the IC10 in data set [1] (setting [20]) was found to be 6 µM. In addition, in data set [1] (setting [21]), the IC50 amounted to 25 µM. Moreover, in data set [11], the cell associated drug concentration at 3 μM is 420 ± 80 pmol/10^6 cells; the cell associated drug concentration at 10 μM is 1000 ± 250 pmol/10^6 cells; the cell associated drug concentration at 100 μM amounted to 6000 ± 330 pmol/10^6 cells; the “cellular accumulation of thioxanthene isomers, in words” value is “equivalent, dose-dependent fashion”. In addition, in [12], the “anti-CaM effect of thioxanthene stereoisomers” value is “no difference between cis and trans-flupenthixol”. The “extrapyramidal side effects / toxicity of flupenthixol isomers” value in data set [13] is “lacks these side effects; also recorded: far less toxic; also recorded: apparent lack of extrapyramidal side effects”. The “octanol:buffer partition coefficient (log P)” value in data set [4] is listed as 4.25.
